Data as given in US12178838B2, “Synthetic neuromodulatory peptides” (Lactocore, Inc., priority 2019, dated 2024).
Like-named read-outs stand apart in the source and are kept apart here.

What was measured:
Sprague Dawley rats = assay type: in vivo; conditions: FQSE 0.5 mg/kg i.n.; diazepam 2 mg/kg IP
Procedure: The five doses of FQSE (SEQ ID NO:10) (0.01, 0.1, 0.5, 1 and 3 mg/kg, CS, Menlo Park, CA) were prepared fresh for each test day in sterile saline and administered intranasally (i.n.) 30 minutes prior to testing. Fifteen rats per group per peptide dose were tested with the exception that there were twenty rats in the vehicle (0) group. Each dose was administered in a randomized order across rats. Prior to dosing, the rats were lightly anesthetized (till loss of righting reflex) with isoflurane (2.5%, 0.5 L/min oxygen), placed in the recumbent position, then a thin plastic pipette (Fischer Scientific) inserted into the nares and peptide administered at a volume of 15-20 uL per nares. […]
Open field tests occurred in open field apparatus constructed of gray Plexiglas (17″L×17″ W×12″ H (43.2 cm×43.2 cm×30.5 cm; Noldus, Leesburg, VA) with digital cameras positioned above the arenas to detect different measures of activity using specialized software (Ethovision, XT12). Rats were first allowed to acclimate to the testing room for 30 minutes while in their home cage. The test was initiated by placing the animal in the center of the open field chamber and behavior recorded for 30 minutes. The observer was not in the room during testing. Testing was conducted under red-light. Arenas were cleaned thoroughly between subjects with LpH disinfectant. […]

[1] = biological target: FQSE (SEQ ID NO:10)-specific binding sites in the rat cortex; assay: Radioligand analysis with [3H] FQSE on rat cortex membranes
Procedure: After decapitation, the tissues were immediately frozen in liquid nitrogen and stored in a low-temperature refrigerator at −80° C. On the day of the experiment, brain tissue (cortex, about 300 mg) was homogenized in a Teflon-glass Potter homogenizer 1:25 W:V in the buffer (50 mM Tris-HCl, pH 7.4). The homogenate was centrifuged at 40,000 g for 20 min. The obtained precipitate was homogenized in a buffer (50 mM Tris-HCl; pH=7.4) and centrifuged again at 40,000 g for 20 min. A similar procedure was performed again. The precipitate was resuspended in 15 ml of the same buffer and used for the radioligand analysis.
The incubation mixture (final volume 0.5 ml) contained 50 μl […]
At the end of the incubation, the samples were filtered through Ge/C glass fiber filters (Whatman) previously moistened with 0.3% polyethyleneimine for 2 hours at room temperature. Each tube was washed twice with cold buffer, then the filters were washed twice with the same volume of buffer.
The filters were air-dried and transferred to scintillation vials. Filters were poured with 5 ml of toluene-based scintillation liquid (4 g PPO, 0.2 g POPOP per liter of toluene).
To construct the curves of the radioactive ligand's displacement each concentration of the test substance was taken in 3 replications. […]

zebrafish (Danio rerio) = assay: Shoaling behavior test in zebrafish; assay type: in vivo; conditions: ip, DKTE 1 mg/kg, vs control
Procedure: The tested substances were injected into the zebrafish intraperitoneally (ip) using an insulin syringe (0.5 ml, 30 g) 10 minutes before the test. The saline solution (0.9% NaCl) was used as a solvent. Anesthesia and immobilization of the animals were achieved by placing them in water at a temperature of 10° C. Control group fish received intraperitoneal injections of an equivalent volume of solvent, also after going through a pre-cooling procedure.
A Plexiglas container with a removable partition (shown in FIG. 4) was used as a setup for investigating the shoaling behavior of zebrafish. A shoal of 5 adult Danio rerio specimens was placed into in the small compartment; and the test fish was placed in a large compartment. Diffused lighting in this installation was provided by the usual lighting of the room (about 200 Lx).
The shoaling behavior test was performed as described in Parker et al., 2014. (Parker et al. (2014) The utility of zebrafish to study the mechanisms by which ethanol affects social behavior and anxiety during early brain development. Prog. Neuro-Psychopharmacology Biol. Psychiatry. 94-100). The video recording began simultaneously with placing the zebrafish in the set-up and recorded for 5 minutes. The videos were processed using RealTimer (OpenScience Ltd., Moskow, Russia). During the processing of the records, the residence time and the number of visits to the three conventional zones of the aquarium wall (near the “shoal” in the middle of the aquarium, and near the opposite side; all three were equal in size) were recorded.

BALB/C mice [2] = assay: Marble Burying test in mice; assay type: in vivo; conditions: ip; Diazepam 0.75 mg/kg; FQSE 5 mg/kg; 30 minutes
Procedure: (§1) After an adaptation period, the test substance was intraperitoneally injected into mice. Behavioral parameters were measured in 30 minutes after injection. The tests were administered as follows: day 1—the Open field test, day 3—the Elevated plus maze test, day 5—the Marble burying test, days 12-13—the Porsolt swim (two-day modification) test.
In the marble burying test, the installation is a standard T3 cage (19 cm×29 cm×13 cm) filled with bedding material. The standard glass marbles (15 mm in diameter, weight 5.2 g, arbitrary color) were used for the test. Twenty marbles were evenly spaced on the surface in 4 rows, 5 pieces each. The animal was placed in the testing cage for 30 minutes. At the end of the period, after the animal was carefully removed, the number of marbles that were more than two-thirds covered with bedding material was counted.
(§2) All substances were injected intraperitoneally in a volume of 10 μl of solution per 1 gram of animal weight 30 minutes prior to behavioral testing.

BALB/C mice [3] = assay: Open Field test in mice; assay type: in vivo; conditions: Diazepam 0.75 mg/kg
Procedure: as §1
In the Open field test, the installation is an arena with a diameter of 63 cm, illuminated by bright light (500 lux) (OpenScience, Russia). The following parameters were measured during 5-minute experiment: a total distance (cm), a time of motion (if the speed is more than 5 cm/s), an immobility (if the speed is less than 0.2 cm/sec), a mean and maximum velocity, and a number of episodes of motor activity and “freezing”. The same set of parameters, as well as latent period and time duration of stay, were recorded for the central sector of the arena. Defecations and rearing (animal raise upright on hind limbs) were assessed visually (File and Wardill (1975) Validity of head-dipping as a measure of exploration in a modified hole-board. Psychopharmacol., 44, 53-59). The test is designed to measure the level of motor and exploratory activity.
as §2

## CN1C(=O)CN=C(c2ccccc2)c2cc(Cl)ccc21 [Diazepam]
Sprague Dawley rats
  center zone entries: 54.3±6.2
  total distance: 5289±263 cm
[1]; read-out: IC50 after different incubation times: 50 min
  IC50: 52 ± 0.3 µM
[1]; read-out: IC50 after different incubation times: 1 h
  IC50: 89 ± 0.3 µM
[1]; read-out: IC50 after different incubation times: 1 h 30 min
  IC50: 95 ± 0.2 µM
[1]; read-out: IC50 for the [3H]-FQSE binding sites in rat cortex membranes
  IC50: ~100 µM
Zebrafish (Danio rerio); diazepam 1.25 mg/kg, ACZ-10 0.6 mg/kg, BCM-7 5 mg/kg
  time spent in the compartment near the shoal: statistically significant decrease
Zebrafish (Danio rerio); diazepam 5 mg/kg, FQSE 10 mg/kg
  time spent outside the shoaling compartment (near the wall opposite to the shoal): increase
BALB/C mice [2]
  number of marbles buried: 1.2±0.39
BALB/C mice [3]; ip 30 min before, FQSE 1 mg/kg
  total distance: 2542.2±179.77 cm
BALB/C mice [3]; ip
  time the animals spent in the center: not significantly different
BALB/C mice [3]; ip, FQSE 1 mg/kg
  number of center entries: not significantly different
  number of rearings: 10.8±2.1
